Earlier results in patent US20130079416A1 (BOIRON, priority 2010, published 2013).
Read-outs that look alike come from different tables or passages of the source.

What was measured:
[1] = rat, oral, multiple doses; methemoglobinemia-carboxyhaemoglobin, changes in blood cell and erythrocyte count
[2] = rats, long time and very high doses, alone or in combination with phenazone (Johansson, 1981)
[3] = human

For `CCOc1ccc(NC(C)=O)cc1` [phenacetin, N-(4-ethoxyphenyl)acetamide], the “Lowest toxic dose (TDL0)” value [1] is listed as 10 mg/kg/ mg/kg/4 weeks (intermittent), the “Incidence of renal tumours” value [2] is listed as “slightly increases the incidence of renal tumours” and the “Lowest toxic dose (TDL0)” value ([3]; acute, route not indicated) is listed as 74 mg/kg. The “Lowest toxic dose (TDL0)” value ([3]; oral, multiple doses, tumorigenic-carcinogenic according to RTECS criteria, renal tumours) was 80 mg/kg/63 mg/kg/63 years (intermittent).
